Assay results: patent US20140275060A1, “COMPOUNDS FOR THE TREATMENT OF NEUROLOGIC DISORDERS” (priority 2013, published 2014)

Target: GluN1/GluN2B Receptors (Rattus norvegicus, UniProt P35439+Q00960)
Experiment: Two-electrode voltage-clamp IC50 determination at GluN1/GluN2B receptors expressed in Xenopus oocytes
Format: cell-based, Human or Rat
Experimental: Determination of IC50 Values of GluN1/GluN2B Receptors Expressed in Xenopus oocytes in Human or Rat Stage V and VI oocytes were surgically removed from the ovaries of large, well-fed and healthy Xenopus laevis anesthetized with 3-amino-benzoic acid ethyl ester (3 gm/l). Oocytes were injected within 24 hrs of isolation with 3-5 ng of GluN1 subunit cRNA and 7-10 ng of GluN2 cRNA subunit in a 50 nl volume, and incubated in Barth's solution at 18° C. for 2-7 d. Glass injection pipettes had tip sizes ranging from 10-20 microns, and were backfilled with mineral oil. Two electrode voltage-clamp recordings were made 2-7 days post-injection. Oocytes were placed in a dual-track plexiglass recording chamber and dual recordings were made at room temperature (23° C.) using two Warner OC725C two-electrode voltage clamp amplifiers, arranged as recommended by the manufacturer. Glass microelectrodes (1-10 Megaohms) were filled with 300 mM KCl (voltage electrode) or 3 M KCl (current electrode). The bath clamps communicated across silver chloride wires placed into each side of the recording chamber, both were assumed to be at a reference potential of 0 mV. Oocytes were perfused with a solution comprised of (in mM) 90 NaCl, 1 KCl, 10 HEPES, 10 EDTA and 0.5 BaCl2; pH was adjusted by addition of 1-3 M NaOH or HCl. Oocytes were recorded under voltage clamp at −40 mV. Final concentrations for glutamate and glycine were 50 μM and 30 μM, respectively. Concentration-response curves for experimental compounds were obtained by applying maximal glutamate/glycine, followed by glutamate/glycine plus variable concentrations of experimental compounds. Dose response curves consisting of 4 to 6 concentrations were obtained in this manner. The baseline leak current at −40 mV was measured before and after recording, and the full recording linearly corrected for any change in leak current. The level of inhibition by applied experimental compounds measured after a 6 min exposure to a compound was expressed as a percent of the initial glutamate response, and averaged together across oocytes from multiple experiments. Results were pooled, and the average percent responses at antagonist concentrations were fit by the equation, Percent Response=(100−minimum)/(1+([conc]/IC50)^nH)+minimum where minimum is the residual percent response in saturating concentration of the experimental compounds, IC50 is the concentration of antagonist that causes half of the achievable inhibition, and nH is a slope factor describing steepness of the inhibition curve. Minimum was constrained to be between zero and 20. Recordings were made at pH 6.9, pH 7.4, and pH 7.6.

GluN1/GluN2B Receptors, sequence (Q00960 27-1482, other chains not shown): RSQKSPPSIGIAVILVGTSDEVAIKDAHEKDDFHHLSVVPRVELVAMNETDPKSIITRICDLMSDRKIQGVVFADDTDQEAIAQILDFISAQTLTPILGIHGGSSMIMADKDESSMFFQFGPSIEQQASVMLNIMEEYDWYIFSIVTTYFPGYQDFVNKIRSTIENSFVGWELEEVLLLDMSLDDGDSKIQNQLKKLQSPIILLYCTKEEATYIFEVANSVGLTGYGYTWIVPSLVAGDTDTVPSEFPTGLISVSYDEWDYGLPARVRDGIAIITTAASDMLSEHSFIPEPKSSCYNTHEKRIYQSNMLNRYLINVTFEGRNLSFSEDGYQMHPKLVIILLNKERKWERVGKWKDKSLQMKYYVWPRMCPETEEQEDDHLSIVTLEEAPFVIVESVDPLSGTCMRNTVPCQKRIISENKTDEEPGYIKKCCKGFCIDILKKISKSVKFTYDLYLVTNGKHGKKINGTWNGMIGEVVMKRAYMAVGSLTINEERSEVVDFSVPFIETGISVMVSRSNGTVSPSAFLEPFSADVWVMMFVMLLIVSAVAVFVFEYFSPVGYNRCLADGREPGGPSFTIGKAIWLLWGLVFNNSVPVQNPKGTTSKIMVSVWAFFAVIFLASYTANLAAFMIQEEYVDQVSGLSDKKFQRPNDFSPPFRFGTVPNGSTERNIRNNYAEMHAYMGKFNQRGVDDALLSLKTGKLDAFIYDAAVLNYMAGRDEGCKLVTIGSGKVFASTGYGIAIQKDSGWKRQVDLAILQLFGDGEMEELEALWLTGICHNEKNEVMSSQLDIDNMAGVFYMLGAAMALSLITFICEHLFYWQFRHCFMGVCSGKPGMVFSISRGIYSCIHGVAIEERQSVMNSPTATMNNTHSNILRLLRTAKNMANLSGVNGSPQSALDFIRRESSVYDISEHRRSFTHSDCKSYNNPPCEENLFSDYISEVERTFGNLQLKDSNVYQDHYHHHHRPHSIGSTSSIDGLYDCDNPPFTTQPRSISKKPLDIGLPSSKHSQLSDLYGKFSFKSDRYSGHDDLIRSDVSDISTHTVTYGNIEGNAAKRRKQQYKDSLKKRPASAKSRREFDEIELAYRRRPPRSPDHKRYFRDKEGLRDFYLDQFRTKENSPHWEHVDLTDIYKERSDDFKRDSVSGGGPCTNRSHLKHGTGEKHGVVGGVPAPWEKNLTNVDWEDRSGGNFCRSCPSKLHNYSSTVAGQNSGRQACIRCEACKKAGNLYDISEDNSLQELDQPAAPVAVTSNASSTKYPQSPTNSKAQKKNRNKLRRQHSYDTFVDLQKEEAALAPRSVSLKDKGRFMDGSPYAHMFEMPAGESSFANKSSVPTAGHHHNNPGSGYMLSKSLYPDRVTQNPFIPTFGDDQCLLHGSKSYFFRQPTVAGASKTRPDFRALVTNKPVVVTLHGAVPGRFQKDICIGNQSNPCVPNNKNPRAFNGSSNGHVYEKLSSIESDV

Row | nH (slope factor of the inhibition curve) (pH 6.9) | nH (slope factor of the inhibition curve) (pH 7.6) | SMILES
1 | −0.81 | −1.28 | O=C1CCc2cc(/C=C/C(O)CN3CCN(c4ccc(Cl)cc4)CC3)ccc2N1 (racemic) [Compound 21, (rac)-(E)-6-(4-(4-(4-Chlorophenyl)piperazin-1-yl)-3-hydroxybut-1-en-1-yl)-3,4-dihydroquinolin-2(1H)-one]
2 | −0.88 | −1.04 | O=C1COc2cc(/C=C/[C@@H](O)CN3CCN(c4ccc(C(F)(F)F)cc4)CC3)ccc2N1 [Compound 15, (R,E)-7-(3-hydroxy-4-(4-(4-(trifluoromethyl)phenyl)piperazin-1-yl)but-1-en-1-yl)-2H-benzo[b][1,4]oxazin-3(4H)-one]
3 | −0.67 | −1.29 | O=C1COc2cc(/C=C/[C@H](O)CN3CCN(c4ccc(C(F)(F)F)cc4)CC3)ccc2N1 [Compound 16, (S,E)-7-(3-hydroxy-4-(4-(4-(trifluoromethyl)phenyl)piperazin-1-yl)but-1-en-1-yl)-2H-benzo[b][1,4]oxazin-3(4H)-one]
4 | −0.95 | −0.64 | O=C1CCc2cc(/C=C/[C@H](O)CN3CCN(c4ccc(Cl)cc4)CC3)ccc2N1 [Compound 27, (S,E)-6-(4-(4-(4-Chlorophenyl)piperazin-1-yl)-3-hydroxybut-1-en-1-yl)-3,4-dihydro-quinolin-2(1H)-one]
5 | −0.64 | −0.90 | O=C1CCc2cc(/C=C/[C@@H](O)CN3CCN(c4ccc(Cl)cc4)CC3)ccc2N1 [Compound 31, (R,E)-6-(4-(4-(4-Chlorophenyl)piperazin-1-yl)-3-hydroxybut-1-en-1-yl)-3,4-dihydroquinolin-2(1H)-one]
6 | −0.56 | −0.65 | O=C1CCc2cc(/C=C/[C@H](O)CN3CCN(c4ccc(C(F)(F)F)cc4)CC3)ccc2N1 [Compound 33, (S,E)-6-(3-Hydroxy-4-(4-(4-(trifluoromethyl)phenyl)piperazin-1-yl)but-1-en-1-yl)-3,4-dihydroquinolin-2(1H)-one]
7 | −0.68 | −0.75 | O=C1CCc2cc(/C=C/[C@@H](O)CN3CCN(c4ccc(C(F)(F)F)cc4)CC3)ccc2N1 [Compound 35, (R,E)-6-(3-Hydroxy-4-(4-(4-(trifluoromethyl)phenyl)piperazin-1-yl)but-1-en-1-yl)-3,4-dihydroquinolin-2(1H)-one]
8 | −0.64 | −1.04 | O=C1NCc2cc(/C=C/[C@@H](O)CN3CCN(c4ccc(C(F)(F)F)cc4)CC3)ccc2N1 [Compound 41, (R,E)-6-(3-hydroxy-4-(4-(4-(trifluoromethyl)phenyl)piperazin-1-yl)but-1-en-1-yl)-3,4-dihydroquinazolin-2(1H)-one]
9 | −0.67 | −1.09 | O=C1CCc2cc(/C=C/[C@@H](CO)N3CCN(c4ccc(C(F)(F)F)cc4)CC3)ccc2N1 [Compound 43, (S,E)-6-(4-Hydroxy-3-(4-(4-(trifluoromethyl)phenyl)piperazin-1-yl)but-1-en-1-yl)-3,4-dihydroquinolin-2(1H)-one]
10 | −0.80 | −0.80 | O=C1CCc2cc(/C=C/[C@@H](O)CN3CCN(c4ccc(C(F)(F)F)cn4)CC3)ccc2N1 [Compound 45, (R,E)-6-(3-Hydroxy-4-(4-(5-(trifluoromethyl)pyridin-2-yl)piperazin-1-yl)but-1-en-1-yl)-3,4-dihydroquinolin-2(1H)-one]

More lines, now with the values behind:

Row | SMILES | nH (slope factor of the inhibition curve) (pH 6.9) | nH (slope factor of the inhibition curve) (pH 7.6)
11 | CCCc1ccc(N2CCN(CC(O)C=Cc3ccc4[nH]c(=O)ccc4c3)CC2)cc1 (racemic) [Compound 10, (rac-)(E)-6-(3-hydroxy-4-(4-(4-propylphenyl)piperazin-1-yl)but-1-en-1-yl)quinolin-2(1H)-one] | −0.90 | −1.24
12 | O=C1CCc2cc(/C=C/C(CO)N3CCN(c4ccc(Cl)cc4)CC3)ccc2N1 (racemic) [Compound 23, (rac)-(E)-6-(3-(4-(4-chlorophenyl)piperazin-1-yl)-4-hydroxybut-1-en-1-yl)-3,4-dihydroquinolin-2(1H)-one] | −1.09 | −0.60
13 | CCCc1ccc(N2CCN(C[C@@H](O)/C=C/c3ccc4[nH]c(=O)ccc4c3)CC2)cc1 [Compound 11, (S,E)-6-(3-hydroxy-4-(4-(4-propylphenyl)piperazin-1-yl)but-1-en-1-yl)quinolin-2(1H)-one] | −0.87 | −0.52
14 | O=c1ccc2cc(/C=C/[C@H](O)CN3CCN(c4ccc(C5CC5)cc4)CC3)ccc2[nH]1 [Compound 13, (S,E)-6-(4-(4-(4-cyclopropylphenyl)piperazin-1-yl)-3-hydroxybut-1-en-1-yl)quinolin-2(1H)-one] | −0.81 | −0.80
15 | O=C1NCc2cc(/C=C/[C@@H](O)CN3CCN(c4ccc(C5CC5)cc4)CC3)ccc2N1 [Compound 18, (R,E)-6-(4-(4-(4-cyclopropylphenyl)piperazin-1-yl)-3-hydroxybut-1-en-1-yl)-3,4-dihydroquinazolin-2(1H)-one] | −0.78 | −1.28
16 | CC(C)c1ccc(N2CCN(C[C@@H](O)/C=C/c3ccc4c(c3)CCC(=O)N4)CC2)cc1 [Compound 25, (S,E)-6-(3-Hydroxy-4-(4-(4-isopropylphenyl)piperazin-1-yl)but-1-en-1-yl)-3,4-dihydroquinolin-2(1H)-one] | −0.61 | −1.22
17 | CC(C)c1ccc(N2CCN(C[C@H](O)/C=C/c3ccc4c(c3)CCC(=O)N4)CC2)cc1 [Compound 29, (R,E)-6-(3-Hydroxy-4-(4-(4-isopropylphenyl)piperazin-1-yl)but-1-en-1-yl)-3,4-dihydroquinolin-2(1H)-one] | −0.54 | −1.31
18 | CC(C)c1ccc(N2CCN(C[C@@H](O)/C=C/c3ccc(NC(N)=O)cc3)CC2)cc1 [Compound 36, (S,E)-1-(4-(3-Hydroxy-4-(4-(4-isopropylphenyl)piperazin-1-yl)but-1-en-1-yl)phenyl)urea] | −0.82 | −1.05
19 | NC(=O)Nc1ccc(/C=C/[C@@H](O)CN2CCN(c3ccc(C(F)(F)F)cc3)CC2)cc1 [Compound 38, (R,E)-1-(4-(3-Hydroxy-4-(4-(4-(trifluoromethyl)phenyl)piperazin-1-yl)but-1-en-1-yl)phenyl)urea] | −0.64 | −0.69
20 | NC(=O)Nc1ccc(/C=C/[C@H](O)CN2CCN(c3ccc(C(F)(F)F)cc3)CC2)cc1 [Compound 39, (S,E)-1-(4-(3-Hydroxy-4-(4-(4-(trifluoromethyl)phenyl)piperazin-1-yl)but-1-en-1-yl)phenyl)urea] | −0.43 | −0.69
